In patent US20150164837A1, “USE OF AMPHOTERIC SURFACTANTS FOR THE PREVENTION AND TREATMENT OF PATHOGENIC VAGINAL BIOFILMS IN VAGINAL INFECTIONS” (DR. AUGUST WOLFF GMBH & CO. KG ARZNEIMITTEL, priority 2012, published 2015):

Key:
[1] = system: Gardnerella vaginalis biofilms; assay: Live/Dead BacLight viability staining, forming (t0) and well developed, still growing (t20m) biofilms; format: cell-based, Gardnerella vaginalis (strain ATCC 14018); details: for inhibition of cell viability (in words): well developed and still growing biofilms (t20m)
Method: (§1) The inhibitory effect of amphoteric surfactants on the formation of Gardnerella vaginalis biofilms were tested in biofilms, grown in 96 well tissue culture test plates. Before starting the biofilm experiments, MIC (minimal inhibitory concentration) values for sodium cocoamphoacetate for planktonic growing Gardnerella vaginalis cultures were determined MIC values for sodium cocoamphoacetate against Gardnerella vaginalis had not been reported so far.
(§2) Gardnerella vaginalis (strain ATCC 14018) were grown on Columbia agar plates supplemented with 5% sheep blood, liquid cultures were grown in brain heart infusion broth supplemented with 2% (w/v) gelatine, 0.5% yeast extract, 0.1% starch and 1% D-(+)-glucose at 37° C. and with the addition of 5% CO2.
For a preculture, bacteria were inoculated from plate or glycerol stock and grew overnight. This preculture was used for starting a new culture. Here the cultivation was performed in microtiter plates in a final volume of […] For testing substances in a forming biofilm (t0), substances were added at this time point. After 20 hours of cultivation, measurements determining the mass of biofilm cells and the biofilm viability were started. […]
The viability was determined using the Live/Dead BacLight bacterial viability staining. […] In contrast, propidium iodide penetrates only bacteria with damaged membranes, causing a reduction in the SYTO 9 stain fluorescence when both dyes are present. […] After 15 min of incubation in the dark fluorescence was measured in a microtiter plate reader equipped with detectors and filter sets for monitoring red (630 nm) and green (530 nm) fluorescence. Afterwards the percentage of the reduction of viability was calculated.
The tested substances namely cocoamidopropyl hydroxysultaine, disodium cocamphodiacetate, sodium cocoamphopropionate and sodium lauroamphoacetate were dissolved in fresh media and added to a mature G. vaginalis biofilm (t20m, see Example 1). After another 20 hrs of incubation, the biofilm viability was determined via Live/Dead staining, as described above.

[2] = system: Gardnerella vaginalis biofilms; assay: Crystal violet staining of biofilm mass, forming (t0) and well developed, still growing (t20m) biofilms; format: cell-based, Gardnerella vaginalis (strain ATCC 14018); details: for inhibition of biofilm formation / reduction of cell mass (in words): well developed and still growing biofilms (t20m)
Method: as §1, §2
For a preculture, bacteria were inoculated from plate or glycerol stock and grew overnight. This preculture was used for starting a new culture. Here the cultivation was performed in microtiter plates in a final volume of […] For testing substances in a forming biofilm (t0), substances were added at this time point. After 20 hours of cultivation, measurements determining the mass of biofilm cells and the biofilm viability were started.
For testing substances in a well developed and further growing biofilm (t20m), medium was gently removed after 20 hours of cultivation and compounds were added in fresh medium for enabling further growth. Incubation was performed for another 20 hours.
At 20 hours (t0) respectively 40 hours of cultivation (t20m) measurements were started, concerning the biofilm formation and viability.
(§3) Crystal violet (CV) staining was used to determine the mass of biofilm cells. For this purpose biofilms grown in 96 well tissue test plates were washed with buffer (PBS, pH of 7.4), dried and stained under shaking with 2% crystal violet in ethanol. After washing with buffer, drying and over night extraction with ethanol, the absorbance (OD620) was measured in a plate reader and the percentage of biomass inhibition was calculated.

[3] = system: Gardnerella vaginalis biofilms in the stationary phase; assay: Biomass of biofilms in the stationary phase (compounds added in PBS to 20 hours old biofilms); format: cell-based; details: 1 mg/ml to 50 mg/ml
Method: as §3, with “calculated. To determine how different concentrations of sodium cocoamphoacetate damage well formed biofilms in the stationary phase, compounds were added in PBS buffer to 20 hours old biofilms and analyzed after further 20 hours of incubation by determining their biomass and viability.” for “calculated.”

[4] = system: vaginal biofilm (Gardnerella vaginalis, Atopobium vaginae); details: cited from earlier work

sodium lauroamphoacetate
inhibition of cell viability (in words) [1]: inhibit the viability
inhibition of biofilm formation / reduction of cell mass (in words) [2]: reduce the cell mass

sodium cocoamphoacetate
reduction in biofilm formation [3]: 44-65%
decrease of viability of the bacterial cells ([1]; added at the beginning of biofilm cultivation (t0), 0.25 mg/ml to 1 mg/ml): 90%
inhibition of biofilm formation ([2]; added at the beginning of biofilm cultivation (t0), concentrations of 0.25 mg/ml and higher): completely inhibited

Cc1ncc([N+](=O)[O-])n1CCO [metronidazole]
effect on the vaginal biofilm ([4]; 500 mg orally twice daily for 7 days, 18 women): did not erase the Gardnerella vaginalis biofilm completely
Nugent Score after treatment ([4]; after 7 day treatment with oral metronidazole): below 7

disodium cocamphodiacetate
inhibition of cell viability (in words) [1]: inhibit the viability
inhibition of biofilm formation / reduction of cell mass (in words) [2]: reduce the cell mass
